Like-named read-outs stand apart in the source and are kept apart here.
Assays:
[1] = tested on: Trypanosoma brucei rhodensiense (STIB 900 strain); test: in vitro growth-inhibiting screening assay, protozoa of African trypanosomiasis; format: cell-based; conditions: for EC50: 72 h, Alamar Blue, read-out: 50% growth-inhibiting concentration (nM) Trypanosoma brucei rhod.
Procedure: This test was done using a trypomastigote of the protozoa of Trypanosoma brucei rhodensiense (STIB 900 strain) ranging in blood stream. MEM medium sterilized by filtration was supplemented with 25 mM of N-2-hydroxyethylpiperazine-2-ethanesulfonic acid (HEPES), 1 g/L of glucose, 1% of MEM non-essential amino acids, 0.2 mM of 2-mercaptoethanol, 2 mM of sodium pyruvate, 1 mM of hypoxathine and 15% of heat-treated horse serum. The protozoa were cultured under CO2 concentration of 5%, at 37° C.
A test sample was prepared by dissolving the test compounds according to the present invention and a positive control drug (Melarsoprol) in DMSO to a predetermined concentration. Culture medium containing the protozoa of 8×10^3, and the test sample comprising the predetermined amount of the test compound, and DMSO without the test compound were added into each well of 96-well culture plate to a final volume of 100 μL in duplicate.
(§1) After incubation of the culture plate for 72 hours in an incubator, a growth-inhibiting activity was assayed as follows. Alamar Blue aqueous solution (10 μL) was added to each well followed by a further two-hour culture. The culture plate was then attached to a fluorescence micro titer plate reader (Spectramax Gemeni XS; U.S. Molecular Device Co.), the intensity of fluorescence at 588 nm was detected with excitation wave length of 536 nm to calculate an infection ratio of the protozoa with respect to a group treated with the test sample and a control group. A growth-inhibiting ratio was then calculated from the resulting infection ratio in accordance with the following equation to determine 50% growth-inhibiting concentration (EC50).
(§2) Growth-inhibiting ratio (%)=[1−(b−a)/(c−a)]×100 • a: Initial infection ratio; • b: Infection ratio of the test sample group; and • c: Infection ratio of the control group.
A selective toxicity coefficient, which is used as an index for the selective toxicity for the protozoa of African trypanosomiasis, was calculated by the following equation, and the pharmaceutical effect was determined.
Selective toxicity coefficient=(EC50 value of the test sample for rat L6 cell)/(EC50 value of the test sample for the protozoa of African typanosomiasis)

[2] = tested on: Leishmania donovani (MHOM/ET/67/L82 strain); test: in vitro growth-inhibiting screening assay, protozoa of Leishmaniasis; format: cell-based; conditions: amastigotes; 72 h, Alamar Blue; read-out: growth-inhibiting concentration (nM) Leishmania donovani
Procedure: This test was done using the protozoa of Leishmania donovani (MHOM/ET/67/L82 strain). The protozoa were subcultured using Syrian Golden hamster and an amastigote was obtained therefrom. The amastigotes were cultured in SM medium supplemented with 10% of heat-treated fetal calf serum (pH 5.4) under CO2 concentration of 5%, at 37° C.
A test sample was prepared by dissolving the test compounds according to the present invention and a positive control drug (Miltefosine) in DMSO to a predetermined concentration. Culture medium containing a predetermined number of the protozoa was added into each well of a 96-well culture plate, and the concentration of the amastigotes was measured by means of CASY cell analysis system (Dermany, Scharfe Co.). Test sample comprising the predetermined amount of the test compound, and DMSO without the test compound were added to the wells in duplicate.
as §1, with “device” for “Device”, “trated” for “treated”
as §2
A selective toxicity coefficient, which is used as an index for the selective toxicity for the protozoa of Leishmaniasis, was calculated by the following equation, and the pharmaceutical effect was determined.
A selective toxicity coefficient=(EC50 value of the test sample for rat L6 cell)/(EC50 value of the test sample for the protozoa of Leishmaniasis).

[3] = tested on: Rat L6 cell (rat skeletal myoblast cell); test: in vitro growth-inhibiting assay of rat L6 cells; format: cell-based
Procedure: Rat L6 cell (rat skeletal myoblast cell) was cultured in RPMI-1640 culture medium supplemented with 1% of L-glutamine (200 mM) and fetal calf serum (10%) under 5% CO2 concentration at 37° C. A test sample was prepared by dissolving the test compounds according to the present invention and a positive control drug in DMSO to a predetermined concentration. After pre-culture had been finished, the culture medium containing the cells in a logarithmic phase was placed into each well of a 96-well culture plate, and the test sample comprising the predetermined amount of the test compound, and DMSO without the test compound were added to the wells in duplicate.
After incubation of the culture plate for 72 hours in an incubator, a growth-inhibiting activity was assayed as follows. Alamar Blue aqueous solution (10 μL) was added to each well followed by a further two-hour culture. The culture plate was then attached to a fluorescence micro titer plate reader (Spectramax Gemeni XS; U.S. Molecular Device Co.), and the intensity of fluorescence at 588 nm was detected with an excitation wave length of 536 nm. A residual ratio of L6 cells was calculated with respect to a group treated with the test sample and a control group. A growth-inhibiting ratio for L6 cells was then calculated from the resulting residual ratio in accordance with the following equation to determine 50% growth-inhibiting concentration (EC50).
Growth-inhibiting ratio (%)=[1−(C−A)/(B−A)]×100 • A: Initial number of cells; • B: Number of the cells in the control after 3 days; and • C: Number of the cells treated with the test sample after 3 days Determination of Pharmaceutical effect for Chloroquine-Resistant Malaria

[4] = mouse, in vivo, po
[5] = Table 3, 72 h, Alamar Blue, read-out: 50% growth-inhibiting concentration (nM) cytotoxicity L6
[6] = Table 8, read-out: 50% growth-inhibiting concentration (nM) cytotoxicity L6
[7] = Table 9, read-out: 50% growth-inhibiting concentration (nM) cytotoxicity L6
[8] = Table 10, read-out: growth-inhibiting concentration (nM) Cytotoxicity L6

Compound	EC50 [1]	EC50 [2]	EC50 [3, 5]	EC50 [3, 6]	EC50 [3, 7]	EC50 [3, 8]	Selective toxicity ([1]; EC50 rat L6 cell / EC50 protozoa of African trypanosomiasis)	EC50 ([1]; Trypanosoma brucei, STIB900)	reduction in weight or change of the conditions of mice attributed to side effects [4]	EC50 [3]
CN(C)c1ccc2nc3ccc(=[N+](C)C)cc-3oc2c1.CN(C)c1ccc2nc3ccc(=[N+](C)C)cc-3oc2c1.[Cl-].[Cl-].[Cl][Zn][Cl] [Compound A-3]	565 nM	887 nM	8870 nM	8870 nM	8870 nM	8870 nM				
CC[N+](CC)=c1ccc2nc3ccc(N(C)C)cc3oc-2c1 [Compound A-4]							9.4	497 nM		
CCN(CC)c1ccc2nc3ccc(=[N+](CC)CC)cc-3oc2c1.[Cl-] [A-1 (60% purity)]	181 nM	2810 nM							No reduction in weight or change of the conditions of mice	3950 nM
CCCC[N+](CCCC)=c1ccc2nc3ccc(N(CC)CC)cc3oc-2c1.[Cl-] [Compound A-6]	67.2 nM	23 nM	839 nM	839 nM	839 nM	839 nM				
CCN(CC)c1ccc2nc3ccc(=[N+](CC)CC)cc-3oc2c1.[Cl-] [A-1 (>95% purity)]									No reduction in weight or change of the conditions of mice	20500 nM
CCCC[N+](CCCC)=c1ccc2nc3ccc(N(C)C)cc3oc-2c1.[O-][Cl+3]([O-])([O-])[O-] [Compound A-7]	113 nM	6 nM	409 nM	409 nM	409 nM	409 nM				

From patent publication US20090036437A1, “PHARMACEUTICAL COMPOSITION COMPRISING PHENOXAZINIUM COMPOUND AS AN ACTIVE INGREDIENT” (priority 2005, published 2009)
